Measured values published in the NIST ThermoML archive (doi:10.1021/je1005533).

Columns and labels:
[1] = refractive index (other wavelength) (dimensionless); settings: 101.3 kPa, Liquid, Wavelength=632.8 nm, Standard Abbe refractometry
[2] = refractive index (other wavelength) (dimensionless); xn = mol fraction of the nth substance listed; settings: 101.3 kPa, Liquid, Wavelength=632.8 nm, Standard Abbe refractometry

COC(=O)OC [dimethyl carbonate]
[1]
Settings	refractive index
308.25 K	1.3607
309.26 K	1.3602
310.32 K	1.3597
311.36 K	1.3592
312.44 K	1.3587
313.49 K	1.3582
314.53 K	1.3577
315.56 K	1.3572
316.66 K	1.3567
317.67 K	1.3562
318.72 K	1.3557
327.67 K	1.3514

COC(=O)OC [dimethyl carbonate] + CCCCCCCCCCCCCCCC
[2], x1 = 1
Settings	refractive index
308.25 K	1.3607
309.26 K	1.3602
310.32 K	1.3597
311.36 K	1.3592
312.44 K	1.3587
313.49 K	1.3582
314.53 K	1.3577
315.56 K	1.3572
316.66 K	1.3567
317.67 K	1.3562
318.72 K	1.3557

COC(=O)OC [dimethyl carbonate] + CCCCCCCCCCCCCCCCCC
Settings	refractive index
[2], 327.67 K, x1 = 1	1.3514

CCCCCCCCCCCCCCCC [hexadecane]
[1]
Settings	refractive index
308.21 K	1.427
309.24 K	1.4265
310.21 K	1.4261
311.24 K	1.4256
312.3 K	1.4252
313.34 K	1.4248
314.44 K	1.4244
315.54 K	1.4239
316.55 K	1.4235
317.56 K	1.4231
318.61 K	1.4226

CCCCCCCCCCCCCCCCCC [octadecane]
Settings	refractive index
[1], 327.67 K	1.4231

CCCCCCCCCCCCCCCCCC [octadecane] + COC(=O)OC
[2], 327.67 K
Settings	refractive index
x2 = 0	1.4231
x2 = 0.099	1.4203
x2 = 0.202	1.4169
x2 = 0.299	1.4132
x2 = 0.399	1.4089
x2 = 0.509	1.4034
x2 = 0.601	1.3979
x2 = 0.701	1.3907
x2 = 0.807	1.3806
x2 = 0.902	1.3685
